The values below come from patent publication US20260125357A1, “LACTATE ENHANCING COMPOUNDS AND USES THEREOF” (GLIAPHARM SA, priority 2022, published 2026).

SMILES strings stand for the structures. Bounds are passed on as bounds.

The subject of assay [1] is APOE4(+) transgenic mice. In words: Morris Water Maze memory in APOE4(+) mouse model of Alzheimer's disease. The format is in vivo. The settings on record: 30 mg/kg, 7 days after training. An excerpt:
Mouse models carrying the APOE4 human allele have a decrease in metabolic gene expression and cerebral glucose uptake compared to APOE3-expressing model (Williams et al., 2020, neurobiol dis, 136:104742; Lin et al., 2015, J Cereb Blood Flow Metabl, 37(1):217-226; Alata et al., 2015, J Cereb Blood Flow Metab, 35(1):86-94. These physiological perturbations induce a brain hypometabolism, which recapitulates brain metabolic status observed in AD carriers of APOE4 allele. Male and female APOE4(+) and APOE3(+) (controls) transgenic mice are used at 3 months of age. Memory of APOE3(+) mice treated with Veh and APOE4 (+) mice treated with Veh or compound (2) at 10 mg/kg and 30 mg/kg is tested in the Morris Water Maze, as described below. Treatment is administered at each day of training, 30 minutes before the first training session. No treatment is administered during memory retention test.
Morris Water Maze (MWM), a well-established spatial and contextual memory test, will be used. […] A number of parameters including the latency to find the platform, time spent around the platform, path efficiency, % time spent in each quadrant is recorded, using automated tracking software (Ethovision). The type of exploration (direct, random, scan of the area) is also recorded. […]

In assay [2] the test system is neurons in astrocyte-neuron co-culture. Description: MTT mitochondrial activity in neurons from astrocyte-neuron co-cultures. It counts as cell-based, mouse. The settings on record: 10 μM, 2 hours. The procedure: Primary mouse neuronal cultures were obtained from 18-day OF1 mouse embryos (Charles River Laboratories). Briefly, cortices were isolated and minced in small pieces under a dissecting microscope. The cells were incubated for 30 min at 37° C. in a solution containing 20 U/ml papain, 1 mM L-cysteine and 10 kU/ml DNase I. After dissociation, papain activity was stopped by the addition of fetal calf serum (FCS). Single-cell suspension was then obtained by mechanical dissociation, which consisted in cells trituration in a Neurobasal+B-27+Glutamax medium. The cells were seeded at an average density of ˜1.5×10^5 cells/cm^2 on poly-D-lysine coated 12-well culture plates and grown in Neurobasal medium supplemented with B-27 and Glutamax at 37° C. in a humidified atmosphere containing 5% CO2/95% air. Neurons were used at DIV10. […]
Neuron pure culture or astrocyte-neuron co-cultures were treated for 2 hours with compound (2) at 10 μM in a solution composed of Neurobasal complemented with B-27 and Glutamax, as well as 0.25 mg/ml thiazol blue tetrazolium bromide (MTT). […] After stimulation, empty coverslips (neuron pure cultures) or astrocytes on coverslips (astrocyte-neuron co-cultures) were separated from neurons, medium was removed and the amount of reduced MTT, i.e formazan, solubilized in DMSO (50 μl/well) was determined using a spectrophotometer (absorbance of 570 nm).

Assay [3] has as its system primary astrocytes. Description: Extracellular medium acidification (SNARF5) assay in astrocytes. It counts as cell-based. The settings on record: Mus musculus, Astrocyte; astrocytes in vitro; compounds 10 nM to 30 μM; read-out: Activity (EC50 class, extracellular medium acidification SNARF5). The procedure:
To assess for the effect of the compounds of the invention, those were tested in primary mouse astrocytes and astrocytes differentiated from human-derived induced pluripotent stem cells (iPSCs). Secretion of lactate was measured indirectly through the acidification of extracellular medium using extracellular pH sensor SNARE-5F-(AND-6)-CAR (SNARF5) as described below.
Primary cultures of cerebrocortical astrocytes were obtained from 1 to 2-day-old OF1 mouse pups (Charles River Laboratories). Briefly, cortices were isolated and minced in small pieces under a dissecting microscope. The cells were incubated for 30 min at 37° C. in a solution containing 20 U/ml papain, 1 mM L-cysteine and 10 kU/ml DNase I. After dissociation, papain activity was stopped by the addition of fetal calf serum (FCS). Single-cell suspension was then obtained by mechanical dissociation, which consisted in cells trituration in a DMEM D7777 medium supplemented with 44 mm NaHCO3, 10 ml/L antibiotic/antimycotic solution and 10% FCS. The cells were seeded at an average density of ˜10′000 cells/cm^2 on poly-D-lysine coated 96- or 12-well culture plates, depending on their use, and grown in DMEM D7777 medium supplemented with 44 mm NaHCO3, 10 ml/L antibiotic/antimycotic solution and 10% FCS at 37° C. in a humidified atmosphere containing 5% CO2/95% air. Culture medium was renewed twice a week. Cells were stimulated and harvested between DIV14 and DIV17, when confluence and cell growth were optimal.
Secretion of lactate was measured indirectly through the acidification of extracellular medium using extracellular pH sensor SNARF-5F-(AND-6)-CAR (SNARF5). After washing cells twice with stimulation medium (DMEM (D5030, Sigma), 1 mM […], and 5 mM Glucose, pH 7.4) at 37° C., cells were stimulated with compounds at a final concentration ranging from 10 nM to 30 μM in 50 μl per well of stimulation medium supplemented with 10 μM of SNARF5 (Life Technologies Corporation). Each compound was tested in two different plates for duplicates. After 30, 60 and 90 min stimulation, fluorescence was read at exc. (excitation) 480 nm/emm. (emission) 580 nm and at exc 480 nm/emm. 630 nm. The ratio of fluorescence between 630 nm and 580 emission values, which is proportional to extracellular pH, was calculated. In each plate, 8 wells were used for negative controls (DMSO 0.1%) and 8 wells were used for positive controls (CCCP 2 μM in DMSO). Results are shown as % of positive control effect (0% and 100% being activities of the Veh and positive control, respectively).

Take `COc1cc2ccnc(Nc3ccc(S(C)(=O)=O)cc3)c2cc1OC` [Compound 2, 6,7-dimethoxy-N-(4-methylsulfonylphenyl)isoquinolin-1-amine]: in assay [1], the “memory in the Morris Water Maze” value is given as “significant increase of memory”. Besides, the “mitochondrial activity of neurons (MTT)” value in assay [2] is on record as “enhances mitochondrial activity of neurons in astrocyte-neuron co-culture”. Further, the EC50 (usually the concentration that produces a half-maximal response) in assay [3] is less than 1000 nM.
